Laboratory results as given in paper PMC9339560 (Journal of Food and Drug Analysis, 2016).

Experiments:
[1] = biological target: butyrylcholinesterase from equine serum (Equus caballus, UniProt P81908); assay: Butyrylcholinesterase; assay type: biochemical; settings: read-out: % Inhibition at 100 μg/mL (BChE)
[2] = system: BChE; settings: cited from earlier work
[3] = system: β-amyloid-induced neurotoxicity; settings: mice; cited from earlier work
[4] = system: mice with valium-impaired memory; settings: radial arm maze; cited from earlier work
[5] = system: neuronal cell death caused by oxidative stress; settings: cited from earlier work
[6] = system: AChE; settings: cited from earlier work

butyrylcholinesterase from equine serum, sequence (P81908 whole entry): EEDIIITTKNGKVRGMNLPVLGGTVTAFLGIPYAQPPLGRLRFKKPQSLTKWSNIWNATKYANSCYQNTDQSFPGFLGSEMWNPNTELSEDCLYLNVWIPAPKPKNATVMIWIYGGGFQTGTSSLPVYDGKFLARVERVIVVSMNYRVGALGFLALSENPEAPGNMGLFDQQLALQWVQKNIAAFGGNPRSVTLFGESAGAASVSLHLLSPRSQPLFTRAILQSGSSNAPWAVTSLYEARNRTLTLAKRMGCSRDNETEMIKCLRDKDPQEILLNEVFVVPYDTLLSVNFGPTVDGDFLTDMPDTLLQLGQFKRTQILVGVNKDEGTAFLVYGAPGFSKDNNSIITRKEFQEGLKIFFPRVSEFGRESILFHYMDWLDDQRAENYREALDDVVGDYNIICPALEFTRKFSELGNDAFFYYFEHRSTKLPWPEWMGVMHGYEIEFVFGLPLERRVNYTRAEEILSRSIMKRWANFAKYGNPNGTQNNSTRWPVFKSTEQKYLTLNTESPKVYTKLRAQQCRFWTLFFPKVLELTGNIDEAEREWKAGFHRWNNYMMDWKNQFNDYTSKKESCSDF

**Q.** With O=c1c(O[C@@H]2O[C@H](CO)[C@@H](O)[C@H](O)[C@H]2O)c(-c2ccc(O)cc2)oc2cc(O)cc(O)c12 [Compound 13, kaempferol 3-O-β-glucopyranoside] as the molecule, how does the inhibition at 100 µg/mL [1] read?
**A.** The inhibition at 100 µg/mL was 7.45 ± 0.72%.

**Q.** For C/C=C(\CC[C@@H](C)[C@H]1CC[C@H]2[C@@H]3CC=C4C[C@@H](O)CC[C@]4(C)[C@H]3CC[C@]12C)C(C)C [Fucosterol, fucosterol], which BChE inhibitory activity [2] is on record?
**A.** The BChE inhibitory activity was “weak BChE inhibitory activity”.

**Q.** With CNC(=O)Oc1ccc2c(c1)[C@]1(C)CCN(C)[C@@H]1N2C [Physostigmine, physostigmine, reference compound] as the molecule, how does the inhibition at 100 µg/mL [1] read?
**A.** Its inhibition at 100 µg/mL is 94.94 ± 0.04%.

**Q.** For COc1cc(/C=C/C(=O)O)ccc1O [ferulic acid], which β-amyloid-induced neurotoxicity [3] is on record?
**A.** The β-amyloid-induced neurotoxicity was “attenuate”.

**Q.** With O=c1c(O)c(-c2ccc(O)cc2)oc2cc(O)cc(O)c12 [kaempferol] as the molecule, how does the “spatial learning and memory” value [4] read?
**A.** Its value is “significantly improved”.

**Q.** Which β-amyloid-induced neurotoxicity [3] does the source give for O=C(O)/C=C/c1ccc(O)cc1 [p-coumaric, p-coumaric acid] here?
**A.** The β-amyloid-induced neurotoxicity was “attenuate”.

**Q.** For Cc1c(C)c2c(c(C)c1O)CC[C@@](C)(CCC[C@H](C)CCC[C@H](C)CCCC(C)C)O2 [α-Tocopherol, α-tocopherol], which “protection against neuronal cell death caused by oxidative stress” value [5] is on record?
**A.** The value was “protective effects”.

**Q.** With CC[C@H](CC[C@@H](C)[C@H]1CC[C@H]2[C@@H]3CC=C4C[C@@H](O)CC[C@]4(C)[C@H]3CC[C@]12C)C(C)C [β-sitosterol] as the molecule, how does the “inhibitory effect on BChE” value [2] read?
**A.** The value was “no appreciable inhibitory effect”.

**Q.** And the “inhibitory effect on AChE” value [6]?
**A.** Its value is “no appreciable inhibitory effect”.
